Assays:
[1] = target: T1, CYP3A4 (Table 1); CYP3A (Homo sapiens, UniProt P08684); experiment: time-dependent inactivation in human liver microsomes; format: biochemical; conditions: read-out: Parameters / K I
T1 construct: native enzyme in human liver microsomes
Text: time-dependent inactivation in human liver microsomes on CYP3A4 (Table 1); CYP3A (text)

[2] = target: T2, UGT1A3 (Homo sapiens, UniProt P35503); experiment: glucuronidation inhibition in human liver microsomes; format: biochemical; conditions: substrate chenodeoxycholic acid; direct inhibition
T2 construct: native enzyme in human liver microsomes
T2 sequence (P35503 29-534): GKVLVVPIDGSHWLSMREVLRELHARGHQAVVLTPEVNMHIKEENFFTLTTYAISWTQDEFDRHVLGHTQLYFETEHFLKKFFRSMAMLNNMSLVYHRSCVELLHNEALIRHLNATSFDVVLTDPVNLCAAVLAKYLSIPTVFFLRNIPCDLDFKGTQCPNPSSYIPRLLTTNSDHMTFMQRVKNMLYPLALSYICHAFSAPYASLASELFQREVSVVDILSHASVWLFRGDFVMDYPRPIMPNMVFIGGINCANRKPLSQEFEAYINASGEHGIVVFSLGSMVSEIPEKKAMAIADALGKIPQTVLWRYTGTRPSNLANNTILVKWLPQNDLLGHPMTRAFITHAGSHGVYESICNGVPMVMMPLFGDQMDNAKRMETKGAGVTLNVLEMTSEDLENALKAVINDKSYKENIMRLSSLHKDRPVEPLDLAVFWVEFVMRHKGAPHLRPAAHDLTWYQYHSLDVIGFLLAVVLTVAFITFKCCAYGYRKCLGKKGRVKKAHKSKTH
Text: glucuronidation inhibition in human liver microsomes on UGT1A3

[3] = target: T3, OAT3 (Homo sapiens, UniProt Q8TCC7); experiment: uptake inhibition in HEK293 cells expressing the transporter; format: cell-based
T3 construct: gene SLC22A8; expressed in HEK293 cells
T3 sequence (Q8TCC7 1-542): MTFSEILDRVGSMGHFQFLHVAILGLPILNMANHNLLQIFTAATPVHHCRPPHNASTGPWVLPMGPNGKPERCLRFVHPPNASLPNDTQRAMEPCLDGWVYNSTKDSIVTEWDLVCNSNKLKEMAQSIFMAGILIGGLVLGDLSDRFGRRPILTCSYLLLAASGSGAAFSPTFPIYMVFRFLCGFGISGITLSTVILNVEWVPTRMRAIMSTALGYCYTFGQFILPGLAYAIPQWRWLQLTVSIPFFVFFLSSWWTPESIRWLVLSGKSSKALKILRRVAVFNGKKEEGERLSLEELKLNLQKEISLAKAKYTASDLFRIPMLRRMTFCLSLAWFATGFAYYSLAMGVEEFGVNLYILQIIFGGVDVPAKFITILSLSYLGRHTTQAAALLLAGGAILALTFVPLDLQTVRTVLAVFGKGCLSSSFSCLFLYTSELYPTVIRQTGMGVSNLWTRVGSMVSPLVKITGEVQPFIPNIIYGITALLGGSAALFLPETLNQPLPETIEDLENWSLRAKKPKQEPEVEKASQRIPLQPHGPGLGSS
Text: uptake inhibition in HEK293 cells expressing the transporter on OAT3

[4] = target: T4, UGT2B7 (Homo sapiens, UniProt P16662); experiment: glucuronidation inhibition in human liver microsomes; format: biochemical; conditions: substrate 3'-azido-3'-deoxythymidine; direct inhibition
T4 construct: native enzyme in human liver microsomes
T4 sequence (P16662 24-529): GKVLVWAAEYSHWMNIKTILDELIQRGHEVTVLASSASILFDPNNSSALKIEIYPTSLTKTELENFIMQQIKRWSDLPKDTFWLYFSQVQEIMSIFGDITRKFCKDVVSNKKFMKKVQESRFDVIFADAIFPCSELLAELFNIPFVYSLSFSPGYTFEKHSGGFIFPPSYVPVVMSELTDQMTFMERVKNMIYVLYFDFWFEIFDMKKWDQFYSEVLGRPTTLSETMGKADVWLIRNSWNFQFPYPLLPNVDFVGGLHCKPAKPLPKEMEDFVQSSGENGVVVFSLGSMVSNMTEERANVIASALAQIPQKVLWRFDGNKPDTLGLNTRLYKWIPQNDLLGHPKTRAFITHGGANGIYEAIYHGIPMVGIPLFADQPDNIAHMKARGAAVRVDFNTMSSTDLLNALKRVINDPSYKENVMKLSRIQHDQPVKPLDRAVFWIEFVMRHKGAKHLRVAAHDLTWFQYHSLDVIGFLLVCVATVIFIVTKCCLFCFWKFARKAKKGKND
Text: glucuronidation inhibition in human liver microsomes on UGT2B7

[5] = target: T5, UGT1A1 (Homo sapiens, UniProt P22309); experiment: as above; format: biochemical; conditions: substrate beta-estradiol, competitive
T5 construct: native enzyme in human liver microsomes
T5 sequence (P22309 26-533): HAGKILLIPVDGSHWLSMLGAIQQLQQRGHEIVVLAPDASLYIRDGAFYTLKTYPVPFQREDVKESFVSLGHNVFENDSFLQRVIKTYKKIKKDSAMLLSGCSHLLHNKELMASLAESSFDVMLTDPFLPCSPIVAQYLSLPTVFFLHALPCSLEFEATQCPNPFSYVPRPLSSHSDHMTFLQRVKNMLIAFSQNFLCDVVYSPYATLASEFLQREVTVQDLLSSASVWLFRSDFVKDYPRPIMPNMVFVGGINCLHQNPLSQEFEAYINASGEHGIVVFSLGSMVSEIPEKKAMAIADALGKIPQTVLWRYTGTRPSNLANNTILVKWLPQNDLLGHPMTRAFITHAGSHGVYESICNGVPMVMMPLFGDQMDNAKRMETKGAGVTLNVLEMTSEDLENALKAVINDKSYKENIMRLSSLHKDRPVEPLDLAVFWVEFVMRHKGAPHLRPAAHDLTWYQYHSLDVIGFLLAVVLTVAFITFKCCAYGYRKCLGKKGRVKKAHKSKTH
Text: glucuronidation inhibition in human liver microsomes on UGT1A1

T1 sequence (P08684 2-503): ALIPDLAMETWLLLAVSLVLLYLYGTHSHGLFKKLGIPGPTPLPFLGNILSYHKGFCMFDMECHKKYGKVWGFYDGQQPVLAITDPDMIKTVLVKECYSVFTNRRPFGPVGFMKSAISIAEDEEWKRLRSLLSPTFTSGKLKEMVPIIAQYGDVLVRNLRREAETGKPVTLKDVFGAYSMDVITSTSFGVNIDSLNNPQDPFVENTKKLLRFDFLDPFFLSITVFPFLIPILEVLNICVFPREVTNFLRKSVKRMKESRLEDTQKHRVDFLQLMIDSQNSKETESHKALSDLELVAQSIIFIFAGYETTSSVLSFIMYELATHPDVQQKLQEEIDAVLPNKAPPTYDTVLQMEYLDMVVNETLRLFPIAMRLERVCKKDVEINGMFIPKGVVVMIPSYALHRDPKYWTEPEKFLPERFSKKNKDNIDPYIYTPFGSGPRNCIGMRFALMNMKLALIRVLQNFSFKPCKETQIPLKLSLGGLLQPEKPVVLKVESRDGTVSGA

Structure (SMILES): COC[C@H]1CN(C(=O)[C@]2(F)CN(C3CCCC3)C[C@H]2c2ccc(OC)cc2)C[C@@H]1c1ccc(C(F)(F)F)cc1N1CCC(C(=O)O)CC1 [dersimelagon]
- KI (inactivation) [1]: 64100 nM
- IC50 [2]: 22.6 µM
- IC50 [3]: 227 nM
- IC50 [4]: > 50 µM
- Ki ([5]; read-out: Parameters / K i): 1190 nM
- IC50 ([5]; direct inhibition): 1.45 µM
